In US9783536B2, “Nitrogen-containing heterocyclic compound or salt thereof” (FUJIFILM Corporation, priority 2013, dated 2017):
pIC50: −log10 of the molar value. Read-outs that look alike come from different tables or passages of the source.

Experiments:
human PI3Kα protein = molecular target: T1, human PI3Kα protein (Homo sapiens, UniProt P42336); assay: PI3Kα enzyme assay (ADP-Glo); format: biochemical; settings: read-out: PI3Kα enzyme inhibitory activity
T1 construct: purchased Carna Biosciences, Inc; host or cells: baculovirus expression system
In short: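 Biotinylated human PI3Kα (baculovirus-expressed, 4.5 nmol/L) pre-incubated 15 min with compound in Tris-HCl pH 7.5, MgCl2, BSA; reaction 60 min at 25° C with 50 μmol/L PIP2 and 100 μmol/L ATP final. ADP quantified by ADP-Glo luminescence; IC50 calculated.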

[1] = molecular target: T2, GST fusion human ERK2 protein (Homo sapiens, UniProt P28482); assay: ERK2 enzyme assay (2); format: biochemical; settings: read-out: ERK2 enzyme inhibitory activity (2)
T2 construct: purchased Carna Biosciences, Inc; host or cells: E. coli expression system
In short: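 GST-tagged human ERK2 expressed in E. coli (1.25 nmol/L) was preincubated with compound for 15 min at room temperature in pH 7.5 Hepes buffer with MgCl2, DTT and Brij35. Reaction with FL-Peptide 8 (final 4.25 μmol/L) and ATP (final 1 mmol/L) ran 120 min at 25 °C; EDTA stopped it, and phosphorylated peptide was quantified by mobility-shift separation to derive IC50.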

T1 sequence (P42336 whole entry): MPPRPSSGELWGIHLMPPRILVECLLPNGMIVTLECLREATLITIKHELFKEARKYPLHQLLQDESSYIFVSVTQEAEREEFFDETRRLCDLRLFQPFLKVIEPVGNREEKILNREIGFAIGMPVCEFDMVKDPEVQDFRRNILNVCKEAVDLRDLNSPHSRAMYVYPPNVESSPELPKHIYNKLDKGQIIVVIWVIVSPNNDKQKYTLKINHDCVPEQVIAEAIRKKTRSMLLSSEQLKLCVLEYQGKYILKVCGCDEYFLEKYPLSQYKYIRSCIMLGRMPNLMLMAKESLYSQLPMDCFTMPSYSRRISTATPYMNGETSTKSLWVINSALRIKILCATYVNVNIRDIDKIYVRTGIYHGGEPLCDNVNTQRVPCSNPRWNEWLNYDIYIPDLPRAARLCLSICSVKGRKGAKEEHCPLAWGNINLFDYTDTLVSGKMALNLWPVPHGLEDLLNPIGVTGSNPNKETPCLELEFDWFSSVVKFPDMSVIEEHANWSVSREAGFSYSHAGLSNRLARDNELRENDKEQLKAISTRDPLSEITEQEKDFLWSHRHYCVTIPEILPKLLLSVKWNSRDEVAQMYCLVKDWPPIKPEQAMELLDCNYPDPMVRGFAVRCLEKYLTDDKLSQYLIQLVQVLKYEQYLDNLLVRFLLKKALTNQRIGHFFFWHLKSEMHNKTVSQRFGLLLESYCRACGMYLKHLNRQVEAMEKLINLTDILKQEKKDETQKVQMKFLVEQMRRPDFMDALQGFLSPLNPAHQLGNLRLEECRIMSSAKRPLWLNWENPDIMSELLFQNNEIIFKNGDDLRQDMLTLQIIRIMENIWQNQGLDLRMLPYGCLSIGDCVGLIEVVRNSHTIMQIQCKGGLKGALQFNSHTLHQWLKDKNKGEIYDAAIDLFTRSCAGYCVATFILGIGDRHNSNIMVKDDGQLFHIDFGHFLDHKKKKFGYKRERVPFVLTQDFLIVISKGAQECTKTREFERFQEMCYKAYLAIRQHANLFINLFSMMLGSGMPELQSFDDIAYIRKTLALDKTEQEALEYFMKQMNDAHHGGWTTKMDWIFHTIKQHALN
T1 sequence (P27986 whole entry partner): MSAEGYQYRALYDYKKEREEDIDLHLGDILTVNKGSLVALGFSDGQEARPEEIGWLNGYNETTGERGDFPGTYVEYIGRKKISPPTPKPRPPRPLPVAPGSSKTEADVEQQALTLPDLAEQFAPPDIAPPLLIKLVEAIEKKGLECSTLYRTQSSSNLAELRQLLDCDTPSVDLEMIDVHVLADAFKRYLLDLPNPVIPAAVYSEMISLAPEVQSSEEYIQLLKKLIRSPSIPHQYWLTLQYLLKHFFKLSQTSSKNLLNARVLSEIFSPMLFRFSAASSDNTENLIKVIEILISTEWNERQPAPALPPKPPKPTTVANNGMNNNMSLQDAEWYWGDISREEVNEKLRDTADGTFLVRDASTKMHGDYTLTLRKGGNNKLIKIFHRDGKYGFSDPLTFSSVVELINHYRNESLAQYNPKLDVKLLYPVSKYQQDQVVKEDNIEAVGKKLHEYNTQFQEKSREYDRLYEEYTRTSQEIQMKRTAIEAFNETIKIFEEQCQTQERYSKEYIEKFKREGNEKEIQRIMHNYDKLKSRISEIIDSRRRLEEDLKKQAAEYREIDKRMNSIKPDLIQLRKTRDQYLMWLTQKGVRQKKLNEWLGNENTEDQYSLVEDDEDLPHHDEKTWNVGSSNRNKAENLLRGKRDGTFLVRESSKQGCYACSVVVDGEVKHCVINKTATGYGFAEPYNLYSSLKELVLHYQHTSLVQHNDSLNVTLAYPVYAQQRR
T2 sequence (P28482 whole entry, the tested form may be a part): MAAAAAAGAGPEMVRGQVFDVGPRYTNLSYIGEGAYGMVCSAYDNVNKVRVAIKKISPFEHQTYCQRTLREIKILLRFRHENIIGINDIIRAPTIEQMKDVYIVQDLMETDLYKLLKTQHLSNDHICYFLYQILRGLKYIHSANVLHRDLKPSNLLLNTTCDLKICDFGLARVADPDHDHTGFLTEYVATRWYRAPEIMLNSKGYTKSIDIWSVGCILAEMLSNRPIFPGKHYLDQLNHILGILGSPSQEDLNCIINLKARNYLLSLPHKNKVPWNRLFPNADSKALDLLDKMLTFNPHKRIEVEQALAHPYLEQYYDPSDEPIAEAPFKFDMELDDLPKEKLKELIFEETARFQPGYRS

`CC(C)c1cnnc(Nc2ccc3ncc(-c4cnn(CC(F)F)c4)cc3n2)c1` [Example 0467] was tested, and the pIC50 (human PI3Kα protein) was > 6.00 and the pIC50 ([1]; ERK2 enzyme assay (2)) was > 6.00.
In the case of `CCC(C)c1cnnc(Nc2ccc3ncc(-c4cn(C)nc4C)cc3n2)c1` (centres unmarked) [Example 0916], the pIC50 (human PI3Kα protein) was > 6.00 and the pIC50 [1] was > 6.00.
`CC(C)c1cnnc(Nc2ccc3ncc(-c4ccnc(N)c4)cc3n2)c1` [Example 0602, 7-(2-aminopyridin-4-yl)-N-(5-isopropylpyridazin-3-yl)-1,5-naphthyridine-2-amine] was tested, and the pIC50 (human PI3Kα protein) was > 6.00 and the pIC50 ([1]; ERK2 enzyme assay (2)) was > 6.00.
In the case of `CC(C)c1cnnc(Nc2ccc3nccc(-c4ccncc4)c3n2)c1` [Example 0410], the pIC50 (human PI3Kα protein) was > 6.00 and the pIC50 ([1]; ERK2 enzyme assay (2)) was > 6.00.
In the case of `CC(C)c1cnnc(Nc2ccc3ncc(N4CC5CC(C4)O5)cc3n2)c1` [Example 0902], the pIC50 (human PI3Kα protein) was > 6.00 and the pIC50 [1] was > 6.00.
In the case of `CC(C)c1cnnc(Nc2ccc3ncc(NC4COC4)cc3n2)c1` [Example 0904], the pIC50 (human PI3Kα protein) was > 6.00 and the pIC50 [1] was 5.00 to 6.00.
For `Cc1cc(-c2nn(C)cc2-c2cnc3ccc(Nc4cc(C(C)C)cnn4)nc3c2)cc(C)n1` [Example 0748, 7-(3-(2,6-Dimethylpyridin-4-yl)-1-methyl-1H-pyrazol-4-yl)-N-(5-isopropylpyridazin-3-yl)-1,5-naphthyridine-2-amine], the pIC50 (human PI3Kα protein) was > 6.00 and the pIC50 ([1]; ERK2 enzyme assay (2)) was > 6.00.
For `CC(C)C(=O)N1CCC(Cn2cc(-c3cnc4ccc(Nc5cc(C(C)C)cnn5)nc4c3)cn2)CC1` [Example 0536], the pIC50 (human PI3Kα protein) was > 6.00 and the pIC50 ([1]; ERK2 enzyme assay (2)) was > 6.00.
In the case of `CC(C)c1cnnc(Nc2ccc3ncc(-c4cnn(CCC5OCCCO5)c4)cc3n2)c1` [Example 0641, 7-(1-(2-(1,3-Dioxan-2-yl)ethyl)-1H-pyrazol-4-yl)-N-(5-isopropylpyridazin-3-yl)-1,5-naphthyridine-2-amine], the pIC50 (human PI3Kα protein) was > 6.00 and the pIC50 ([1]; ERK2 enzyme assay (2)) was > 6.00.
With `COC1CCN(c2cnc3ccc(Nc4cc(C(C)C)cnn4)nc3c2)C1` (centres unmarked) [Example 0895] the pIC50 (human PI3Kα protein) was 5.00 to 6.00 and the pIC50 ([1]; ERK2 enzyme assay (2)) was > 6.00.
In the case of `CC(C)c1cnnc(Nc2ccc3ncc(-c4cnn(CCCN5CC(OC(F)F)C5)c4)cc3n2)c1` [Example 0681], the pIC50 (human PI3Kα protein) was > 6.00 and the pIC50 ([1]; ERK2 enzyme assay (2)) was > 6.00.
In the case of `CC(C)c1cnnc(Nc2ccc3ncc(-c4cn(C)nc4COc4cccc(OCC(=O)N(C)C)c4)cc3n2)c1` [Example 0810], the pIC50 (human PI3Kα protein) was > 6.00 and the pIC50 ([1]; ERK2 enzyme assay (2)) was > 6.00.
With `COC(=O)c1ccc(Cn2cc(-c3cnc4ccc(Nc5cc(C(C)C)cnn5)nc4c3)cn2)cc1` [Example 0792] the pIC50 (human PI3Kα protein) was > 6.00 and the pIC50 ([1]; ERK2 enzyme assay (2)) was > 6.00.
With `CCC(CC)c1cnnc(Nc2ccc3ncc(-c4cn(C)nc4C)cc3n2)c1` [Example 0769] the pIC50 (human PI3Kα protein) was > 6.00 and the pIC50 ([1]; ERK2 enzyme assay (2)) was > 6.00.
In the case of `CC(C)c1cnnc(Nc2ccc3ncc(N4CCN(S(C)(=O)=O)CC4)cc3n2)c1` [Example 0861], the pIC50 (human PI3Kα protein) was > 6.00 and the pIC50 ([1]; ERK2 enzyme assay (2)) was > 6.00.
In the case of `CC(C)c1cnnc(Nc2ccc3ncc(N4CCC(=O)N(C)CC4)cc3n2)c1` [Example 0862], the pIC50 (human PI3Kα protein) was > 6.00 and the pIC50 ([1]; ERK2 enzyme assay (2)) was > 6.00.
`CC(C)c1cnnc(Nc2ccc3ncc(-c4cnn(CCOC5CN(S(C)(=O)=O)C5)c4)cc3n2)c1` [Example 0755, N-(5-isopropylpyridazin-3-yl)-7-(1-(2-((1-(methylsulfonyl)azetidin-3-yl)oxy)ethyl)-1H-pyrazol-4-yl)-1,5-naphthyridine-2-amine] was tested, and the pIC50 (human PI3Kα protein) was > 6.00 and the pIC50 ([1]; ERK2 enzyme assay (2)) was > 6.00.
For `CC(=O)Nc1ccc(Cn2cc(-c3cnc4ccc(Nc5cc(C(C)C)cnn5)nc4c3)cn2)cc1` [Example 0470, N-(4-((4-(6-((5-isopropylpyridazin-3-yl)amino)-1,5-naphthyridin-3-yl)-1H-pyrazol-1-yl)methyl)phenyl)acetamide], the pIC50 (human PI3Kα protein) was > 6.00 and the pIC50 ([1]; ERK2 enzyme assay (2)) was > 6.00.
For `CC(C)c1cnnc(Nc2ccc3ncc(-c4cnn(CC(=O)N5CCOCC5)c4)cc3n2)c1` [Example 0558], the pIC50 (human PI3Kα protein) was > 6.00 and the pIC50 ([1]; ERK2 enzyme assay (2)) was > 6.00.
In the case of `CC(C)c1cnnc(Nc2ccc3ncc(-c4cn(C)nc4Nc4ccncc4)cc3n2)c1` [Example 0798], the pIC50 (human PI3Kα protein) was > 6.00 and the pIC50 ([1]; ERK2 enzyme assay (2)) was > 6.00.
For `COC1(C)CN(c2cnc3ccc(Nc4cc(C(C)C)cnn4)nc3c2)C1` [Example 0859], the pIC50 (human PI3Kα protein) was 5.00 to 6.00 and the pIC50 ([1]; ERK2 enzyme assay (2)) was > 6.00.
In the case of `CC(C)c1cnnc(Nc2ccc3ncc(-c4cn(C)nc4NC4CCCCC4)cc3n2)c1` [Example 0830, 7-(3-(cyclohexylamino)-1-methyl-1H-pyrazol-4-yl)-N-(5-isopropylpyridazin-3-yl)-1,5-naphthyridine-2-amine], the pIC50 (human PI3Kα protein) was > 6.00 and the pIC50 ([1]; ERK2 enzyme assay (2)) was > 6.00.
For `Cc1ncc(-c2nn(C)cc2-c2cnc3ccc(Nc4cc(C(C)C)cnn4)nc3c2)s1` [Example 0587], the pIC50 (human PI3Kα protein) was > 6.00 and the pIC50 ([1]; ERK2 enzyme assay (2)) was > 6.00.
For `CC(C)c1cnnc(Nc2ccc3ncc(N4CCCN(C)CC4)cc3n2)c1` [Example 0871], the pIC50 (human PI3Kα protein) was 5.00 to 6.00 and the pIC50 ([1]; ERK2 enzyme assay (2)) was 5.00 to 6.00.
With `CC(C)c1cnnc(Nc2ccc3ncc(-c4cn(C)nc4Cl)cc3n2)c1` [Example 0886, 7-(3-Chloro-1-methyl-1H-pyrazol-4-yl)-N-(5-isopropylpyridazin-3-yl)-1,5-naphthyridine-2-amine] the pIC50 (human PI3Kα protein) was > 6.00 and the pIC50 ([1]; ERK2 enzyme assay (2)) was > 6.00.
In the case of `CC(C)c1cnnc(Nc2ccc3ncc(-c4cnn(CC5CCN(C(=O)N6CCOCC6)CC5)c4)cc3n2)c1` [Example 0532], the pIC50 (human PI3Kα protein) was > 6.00 and the pIC50 ([1]; ERK2 enzyme assay (2)) was > 6.00.
`CC(C)c1cnnc(Nc2ccc3ncc(NC4CCC4)cc3n2)c1` [Example 0879] was tested, and the pIC50 (human PI3Kα protein) was > 6.00 and the pIC50 ([1]; ERK2 enzyme assay (2)) was > 6.00.
In the case of `CC(C)c1cnnc(Nc2ccc3ncc(-c4cncn4C)cc3n2)c1` [Example 0509, N-(5-isopropylpyridazin-3-yl)-7-(1-methyl-1H-imidazol-5-yl)-1,5-naphthyridine-2-amine], the pIC50 (human PI3Kα protein) was 5.00 to 6.00 and the pIC50 ([1]; ERK2 enzyme assay (2)) was > 6.00.
For `CC(C)c1cnnc(Nc2ccc3ncc(-c4cn(C)nc4Cc4cccnc4)cc3n2)c1` [Example 0824, N-(5-isopropylpyridazin-3-yl)-7-(1-methyl-3-(pyridin-3-ylmethyl)-1H-pyrazol-4-yl)-1,5-naphthyridine-2-amine], the pIC50 (human PI3Kα protein) was > 6.00 and the pIC50 ([1]; ERK2 enzyme assay (2)) was > 6.00.
With `CC(=O)N1CC(Cn2cc(-c3cnc4ccc(Nc5cc(C(C)C)cnn5)nc4c3)cn2)C1` [Example 0438, 1-(3-((4-(6-((5-isopropylpyridazin-3-yl)amino)-1,5-naphthyridin-3-yl)-1H-pyrazol-1-yl)methyl)azetidin-1-yl)ethanone] the pIC50 (human PI3Kα protein) was > 6.00 and the pIC50 ([1]; ERK2 enzyme assay (2)) was > 6.00.
`Cc1ccc(-c2nn(C)cc2-c2cnc3ccc(Nc4cc(C(C)C)cnn4)nc3c2)cc1` [Example 0767, N-(5-isopropylpyridazin-3-yl)-7-(1-methyl-3-(4-methylphenyl)-1H-pyrazol-4-yl)-1,5-naphthyridine-2-amine] was tested, and the pIC50 (human PI3Kα protein) was > 6.00 and the pIC50 ([1]; ERK2 enzyme assay (2)) was > 6.00.
For `CC(C)c1cnnc(Nc2ccc3ncc(-c4cnn(Cc5ccc([N+](=O)[O-])cc5)c4)cc3n2)c1` [Example 0716], the pIC50 (human PI3Kα protein) was > 6.00 and the pIC50 ([1]; ERK2 enzyme assay (2)) was > 6.00.
With `Cc1nn(C)cc1-c1cnc2ccc(Nc3cc(CC4CCCCC4)cnn3)nc2c1` [Example 0789] the pIC50 (human PI3Kα protein) was > 6.00 and the pIC50 ([1]; ERK2 enzyme assay (2)) was > 6.00.
In the case of `CC(C)c1cnnc(Nc2ccc3ncc(-c4cnn(CCCN5CC(OCC(F)F)C5)c4)cc3n2)c1` [Example 0714], the pIC50 (human PI3Kα protein) was > 6.00 and the pIC50 ([1]; ERK2 enzyme assay (2)) was > 6.00.
For `CC(C)c1cnnc(Nc2ccc3ncc(N4CCN(C)CC4)cc3n2)c1` [Example 0842, N-(5-isopropylpyridazin-3-yl)-7-(4-methylpiperazin-1-yl)-1,5-naphthyridine-2-amine], the pIC50 (human PI3Kα protein) was 5.00 to 6.00 and the pIC50 ([1]; ERK2 enzyme assay (2)) was 5.00 to 6.00.
With `CC(C)c1cnnc(Nc2ccc3ncc(-c4cnn(CCCN5CC(Oc6ccccc6)C5)c4)cc3n2)c1` [Example 0715, N-(5-isopropylpyridazin-3-yl)-7-(1-(3-(3-phenoxyazetidin-1-yl)propyl)-1H-pyrazol-4-yl)-1,5-naphthyridine-2-amine] the pIC50 (human PI3Kα protein) was > 6.00 and the pIC50 ([1]; ERK2 enzyme assay (2)) was > 6.00.
In the case of `CC(C)c1cnnc(Nc2ccc3ncc(C(=O)NCCCO)cc3n2)c1` [Example 0663], the pIC50 (human PI3Kα protein) was 5.00 to 6.00 and the pIC50 ([1]; ERK2 enzyme assay (2)) was 5.00 to 6.00.
In the case of `CC(C)c1cnnc(Nc2ccc3ncc(-c4cnn(CCCN5CC[C@@H](F)C5)c4)cc3n2)c1` [Example 0429], the pIC50 (human PI3Kα protein) was > 6.00 and the pIC50 ([1]; ERK2 enzyme assay (2)) was > 6.00.
With `CC(C)c1cnnc(Nc2ccc3ncc(-c4cnn(CCOC5CN(CC(F)F)C5)c4)cc3n2)c1` [Example 0747, 7-(1-(2-((1-(2,2-difluoroethyl)azetidin-3-yl)oxy)ethyl)-1H-pyrazol-4-yl)-N-(5-isopropylpyridazin-3-yl)-1,5-naphthyridine-2-amine] the pIC50 (human PI3Kα protein) was > 6.00 and the pIC50 ([1]; ERK2 enzyme assay (2)) was > 6.00.
For `CC(C)c1ccnc(Nc2ccc3ncc(-c4cnn(C)c4)cc3n2)c1` [Example 0551, N-(4-isopropylpyridin-2-yl)-7-(1-methyl-1H-pyrazol-4-yl)-1,5-naphthyridine-2-amine], the pIC50 (human PI3Kα protein) was > 6.00 and the pIC50 ([1]; ERK2 enzyme assay (2)) was 4.30 to 5.00.
For `Cc1nn(C)cc1-c1cnc2ccc(Nc3cc(C(C)(C)C)cnn3)nc2c1` [Example 0917], the pIC50 (human PI3Kα protein) was > 6.00 and the pIC50 [1] was > 6.00.
For `COCCN(CCCn1cc(-c2cnc3ccc(Nc4cc(C(C)C)cnn4)nc3c2)cn1)CCOC` [Example 0660], the pIC50 (human PI3Kα protein) was > 6.00 and the pIC50 ([1]; ERK2 enzyme assay (2)) was > 6.00.
`CC(=O)N1[C@H](C)CN(CCCn2cc(-c3cnc4ccc(Nc5cc(C(C)C)cnn5)nc4c3)cn2)C[C@@H]1C` [Example 0435] was tested, and the pIC50 (human PI3Kα protein) was > 6.00 and the pIC50 ([1]; ERK2 enzyme assay (2)) was > 6.00.
With `CC(C)c1cnnc(Nc2ccc3ncc(-c4cn(C)nc4N(C)c4cccnc4)cc3n2)c1` [Example 0802] the pIC50 (human PI3Kα protein) was > 6.00 and the pIC50 ([1]; ERK2 enzyme assay (2)) was > 6.00.
For `CC(C)c1cnnc(Nc2ccc3ncc(-c4cn(C)nc4-c4ccccc4)cc3n2)c1` [Example 0579], the pIC50 (human PI3Kα protein) was > 6.00 and the pIC50 ([1]; ERK2 enzyme assay (2)) was > 6.00.
With `CC(C)c1cnnc(Nc2ccc3ncc(-c4cnn(CCCN5CC(NC(=O)C(F)(F)F)C5)c4)cc3n2)c1` [Example 0696] the pIC50 (human PI3Kα protein) was > 6.00 and the pIC50 ([1]; ERK2 enzyme assay (2)) was > 6.00.
